Data on three compounds can be found in US8741910B2, “Soluble guanylate cyclase activators” (Merck Sharp & Dohme Corp., priority 2008, dated 2014).

pEC50: −log10 of the molar value.

This test concerns the target T1, sGC α1/β1 heterodimer (Homo sapiens, UniProt Q02108+Q02153).
T1 construct: expressed in transfected cells; host or cells: CHO-K1 (clone #7, CHO-K1/sGC)
T1 sequence (Q02108 1-690): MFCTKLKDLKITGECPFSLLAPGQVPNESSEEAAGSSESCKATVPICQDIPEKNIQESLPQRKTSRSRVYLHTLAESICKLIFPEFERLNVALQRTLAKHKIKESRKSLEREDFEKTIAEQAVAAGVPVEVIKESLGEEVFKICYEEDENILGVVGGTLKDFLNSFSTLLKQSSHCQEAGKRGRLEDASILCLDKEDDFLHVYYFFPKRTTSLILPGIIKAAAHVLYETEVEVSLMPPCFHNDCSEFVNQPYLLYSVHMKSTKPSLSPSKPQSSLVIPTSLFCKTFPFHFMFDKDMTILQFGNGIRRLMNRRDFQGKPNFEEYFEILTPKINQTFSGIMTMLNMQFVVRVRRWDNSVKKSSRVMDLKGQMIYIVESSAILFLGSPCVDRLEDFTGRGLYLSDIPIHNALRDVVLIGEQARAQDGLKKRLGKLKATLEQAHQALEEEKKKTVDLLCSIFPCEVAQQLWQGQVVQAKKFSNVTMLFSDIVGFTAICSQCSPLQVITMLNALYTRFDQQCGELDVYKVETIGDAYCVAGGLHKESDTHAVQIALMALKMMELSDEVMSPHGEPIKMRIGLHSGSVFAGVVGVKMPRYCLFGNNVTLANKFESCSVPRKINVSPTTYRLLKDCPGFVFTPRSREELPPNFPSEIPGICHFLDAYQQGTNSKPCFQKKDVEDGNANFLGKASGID
T1 sequence (Q02153 1-619): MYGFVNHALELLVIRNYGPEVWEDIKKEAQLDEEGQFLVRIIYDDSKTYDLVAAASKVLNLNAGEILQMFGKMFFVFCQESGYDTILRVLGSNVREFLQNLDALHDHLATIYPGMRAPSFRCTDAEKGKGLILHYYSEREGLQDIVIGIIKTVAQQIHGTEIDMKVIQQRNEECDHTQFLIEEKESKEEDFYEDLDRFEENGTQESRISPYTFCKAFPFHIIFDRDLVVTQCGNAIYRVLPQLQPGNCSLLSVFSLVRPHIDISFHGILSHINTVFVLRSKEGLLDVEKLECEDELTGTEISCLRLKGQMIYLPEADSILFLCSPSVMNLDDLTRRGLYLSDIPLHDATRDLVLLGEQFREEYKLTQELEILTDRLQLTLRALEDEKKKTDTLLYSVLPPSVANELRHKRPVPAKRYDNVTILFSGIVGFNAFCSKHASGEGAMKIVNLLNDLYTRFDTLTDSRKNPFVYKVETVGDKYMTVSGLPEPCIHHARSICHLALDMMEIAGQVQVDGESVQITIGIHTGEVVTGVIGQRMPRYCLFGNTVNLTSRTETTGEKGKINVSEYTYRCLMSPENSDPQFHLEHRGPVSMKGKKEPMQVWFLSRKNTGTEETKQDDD
As to the kind of experiment: Cell-Based sGC Functional Assay (CASA Assay). As to conditions: CHO-K1/sGC cells, intracellular cGMP by HTRF, 1 hr at 37 °C. From the text:
Increases in cGMP levels affect several physiological processes including vasorelaxation through multiple downstream pathways. […] Heme-dependent activators (HDAs) preferentially activate sGC containing a ferrous heme group. To determine the effect of sGC activators on enzyme activity, the CASA assay was developed to monitor the generation of cGMP in a cell line that stably expresses the heterodimeric sGC protein.
A CHO-K1 cell line stably expressing the sGC α1/β1 heterodimer was generated using a standard transfection protocol. CHO-K1 cells were transfected with plasmids pIREShyghsGCα1 and pIRESneo-hsGCβ1 simultaneously using FUGENE reagent. Clones that stably express both subunits were selected with hygromycin and neomycin for ˜2 weeks. Clone #7 was chosen for the assay and was designated CHO-K1/sGC. CHO-K1/sGC cells were maintained in F-K12 medium containing 10% heat-inactivated Fetal Bovine Serum (FBS), 100 μg/mL penicillin/streptomycin, 0.5 mg/mL hygromycin and 0.25 mg/mL G418. […] IBMX (3-isobutyl-1-methylxanthin, 0.5 mM) was added to inhibit degradation of cGMP. Compounds were diluted from DMSO stock solutions and added to the assay at a final DMSO concentration of 1%. […] At the end of the incubation period, the reaction was terminated and the cells were lysed. The level of intracellular cGMP was determined using an HTRF-based assay kit (CisBio, 62GM2PEC), which detects the displacement of a fluorescence labeled cGMP from its specific antibody.
(In TR-FRET formats the signal depends on donor and acceptor labels being close together.)

Usually pEC50 stands for the EC50 on a negative log10 scale, so that one unit is a factor of ten. A higher pEC50 goes with a small EC50. Take `CC1(C)C(=O)Nc2nc(-c3nc(Cc4c(F)ccc(F)c4F)n4cc(Cl)ccc34)nc(N)c21` [Example 59, 4-amino-2-[6-chloro-3-(2,3,6-trifluorobenzyl)imidazo[1,5-a]pyridin-1-yl]-5,5-dimethyl-5,7-dihydro-6H-pyrrolo[2,3-d]pyrimidin-6-one]: the pEC50 is 7.62.
In turn, `CC1(C)C(=O)Nc2nc(-c3nc(Cc4c(F)ccc(F)c4F)n4cc(F)ccc34)nc(N)c21` [Example 60, 4-amino-2-[6-fluoro-3-(2,3,6-trifluorobenzyl)imidazo[1,5-a]pyridin-1-yl]-5,5-dimethyl-5,7-dihydro-6H-pyrrolo[2,3-d]pyrimidin-6-one] showed a pEC50 of 7.51.
Under `CC1(C)C(=O)Nc2nc(-c3nn(CCC(F)(F)C(F)(F)F)c4cc(Cl)ccc34)nc(N)c21` [Example 111, 4-amino-2-[6-chloro-1-(3,3,4,4,4-pentafluorobutyl)-1H-indazol-3-yl]-5,5-dimethyl-5,7-dihydro-6H-pyrrolo[2,3-d]pyrimidin-6-one] stands 7.08.
